Some test systems named below: NCI-H226 lung; NCI-H23 lung; OVCAR-8 ovarian; ACHN renal; COLO 205 colon; SNB-19 CNS; NCI/ADR-RES ovarian; SF-268 CNS; HT29 colon; 786-0 renal; SNB-75 CNS; MDA-MB-435; SK-MEL-2 melanoma; SK-OV-3 ovarian; OVCAR-3 ovarian; SF-539 CNS; T-47D breast; SF-295 CNS; A549 NSCLC; OVCAR-4 ovarian.
Common to all, as to assay: inhibition of tumour cell growth, NCI panel, 48 h

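Five concentrations, 48 hours, 96-well plates. Definition used: TGI = concentration required for complete inhibition of growth.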 Where a SMILES comes first, the peptide text is derived from it. The star is where a group is joined. Cbz = O=C(OCc1ccccc1)*; OBn = c1ccc(CO*)cc1

In the case of `COc1cc(Br)c(OC)c2c(OC)cc(C)cc12`, the TGI with NCI-H226 lung, in the assay on NCI-H23 lung, in the assay with OVCAR-8 ovarian, with ACHN renal, in the assay on COLO 205 colon and in the assay on SNB-19 CNS was more than 100 µM throughout. In addition, the TGI in the assay with NCI/ADR-RES ovarian, in the assay on SF-268 CNS, in the assay on HT29 colon, in the assay on 786-0 renal, with SNB-75 CNS and with MDA-MB-435 was more than 100 µM throughout. In addition, the TGI with SK-MEL-2 melanoma, in the assay on SK-OV-3 ovarian, with OVCAR-3 ovarian, in the assay with SF-539 CNS, in the assay with T-47D breast and in the assay with SF-295 CNS was more than 100 µM each time.
Consider `COc1cc2c(/C=C3/C(=O)Nc4ccc(Cl)cc43)c(Cl)n(Cc3ccccc3)c2cc1C`, for which the TGI was 9.61 µM in the assay on NCI-H226 lung; 7.46 µM in the assay with NCI-H23 lung; 6.8 µM in the assay with ACHN renal; 6.36 µM in the assay with COLO 205 colon; 8.98 µM in the assay with SNB-19 CNS; more than 100 µM in the assay on NCI/ADR-RES ovarian. In addition, the TGI in the assay on SF-268 CNS was more than 100 µM; in the assay with HT29 colon, more than 100 µM; in the assay with 786-0 renal, 6.41 µM; in the assay on SNB-75 CNS it was 4.61 µM; in the assay on MDA-MB-435, 6.21 µM; with SK-MEL-2 melanoma, 34.9 µM. In addition, the TGI in the assay with SK-OV-3 ovarian was 4.41 µM; in the assay with A549 NSCLC, more than 100 µM; in the assay with OVCAR-3 ovarian, 4.83 µM; with SF-539 CNS, 7.69 µM; in the assay on T-47D breast, 13.9 µM; in the assay with SF-295 CNS, 7.19 µM.
Take `Fc1c(F)c(C(F)(F)F)c(F)c(F)c1N/N=C\c1c[nH]c2ccccc12`: the TGI in the assay on OVCAR-4 ovarian came out at 6.72 µM; in the assay with NCI-H23 lung it was 16.4 µM; with OVCAR-8 ovarian, 21.8 µM; in the assay on ACHN renal, 19.5 µM; in the assay on COLO 205 colon, 2.71 µM; in the assay with SNB-19 CNS, 12 µM. In addition, the TGI in the assay on NCI/ADR-RES ovarian was found to be 5.84 µM; in the assay with SF-268 CNS it was 19.4 µM; in the assay with HT29 colon, 6.46 µM; in the assay with 786-0 renal, 14.5 µM; in the assay on SNB-75 CNS it was 6.23 µM; in the assay with MDA-MB-435, 3.14 µM. Besides, the TGI in the assay with SK-MEL-2 melanoma was 8.81 µM; in the assay with SK-OV-3 ovarian it was 12.9 µM; in the assay on A549 NSCLC, 12 µM; with OVCAR-3 ovarian it was 4.7 µM; with T-47D breast it was 18.7 µM; with SF-295 CNS, 6.82 µM.
`O=C1CSC2(CC(/C=C/c3ccccc3O)=NN2c2cccc(S(=O)(=O)O)c2)N1c1nc2ccccc2s1` (stereo not given): the TGI in the assay on NCI-H226 lung was more than 100 µM; with OVCAR-4 ovarian, 88.5 µM; in the assay on NCI-H23 lung, more than 100 µM; in the assay on OVCAR-8 ovarian, 54.1 µM; in the assay on ACHN renal, more than 100 µM; in the assay with COLO 205 colon, more than 100 µM. In addition, the TGI in the assay on SNB-19 CNS was more than 100 µM; with NCI/ADR-RES ovarian, more than 100 µM; with SF-268 CNS, more than 100 µM; in the assay on HT29 colon, more than 100 µM; in the assay with 786-0 renal, 98.7 µM; in the assay with SNB-75 CNS it was more than 100 µM. In addition, the TGI in the assay on MDA-MB-435 is 55.7 µM; in the assay with SK-MEL-2 melanoma it was more than 100 µM; with A549 NSCLC, more than 100 µM; in the assay on SF-539 CNS, 48.8 µM; in the assay with T-47D breast, 65.4 µM.
For the molecule `COC(=O)CNC(=O)C(C)NC(=O)C(CC(=O)OCc1ccccc1)NC(=O)OCc1ccccc1` (stereo not drawn) (Cbz-Asp(OBn)-Ala-Gly-OMe; configuration not given here), the TGI with NCI-H226 lung, in the assay with NCI-H23 lung, in the assay on OVCAR-8 ovarian, in the assay on COLO 205 colon, with SNB-19 CNS and in the assay on NCI/ADR-RES ovarian was more than 100 µM each time. Besides, the TGI with HT29 colon, in the assay with 786-0 renal, in the assay on SNB-75 CNS, in the assay on MDA-MB-435, in the assay on SK-MEL-2 melanoma and in the assay with SK-OV-3 ovarian was more than 100 µM throughout. In addition, the TGI is more than 100 µM in the assay on A549 NSCLC; more than 100 µM in the assay with OVCAR-3 ovarian; more than 100 µM in the assay on SF-539 CNS; 70.3 µM in the assay with T-47D breast; more than 100 µM with SF-295 CNS.
Regarding `CCOC(=O)/C(N=Nc1ccc(-n2c(C)nc3ccccc3c2=O)cc1)=C(/C)O`, the TGI is 80.1 µM in the assay on NCI-H226 lung; more than 100 µM in the assay with NCI-H23 lung; 50.5 µM in the assay with OVCAR-8 ovarian; more than 100 µM in the assay with ACHN renal; more than 100 µM with COLO 205 colon; more than 100 µM with SNB-19 CNS. In addition, the TGI in the assay with NCI/ADR-RES ovarian was 51.8 µM; in the assay on SF-268 CNS it was more than 100 µM; in the assay with HT29 colon it was more than 100 µM; in the assay with 786-0 renal, more than 100 µM; in the assay on SNB-75 CNS it was 78.4 µM; in the assay with MDA-MB-435 it was 59.8 µM. The TGI was more than 100 µM with SK-MEL-2 melanoma; more than 100 µM in the assay with SK-OV-3 ovarian; more than 100 µM in the assay with A549 NSCLC; 53.1 µM in the assay on OVCAR-3 ovarian; more than 100 µM in the assay on SF-539 CNS; 92.3 µM in the assay with T-47D breast. The molecule also returned a TGI in the assay with SF-295 CNS of more than 100 µM.
As to `NCCCNCCCNCCCN`, the TGI with NCI-H226 lung, in the assay on OVCAR-4 ovarian, with NCI-H23 lung, with OVCAR-8 ovarian, with ACHN renal and in the assay on COLO 205 colon was more than 100 µM throughout. The TGI in the assay on SNB-19 CNS is more than 100 µM; with NCI/ADR-RES ovarian, more than 100 µM; in the assay on SF-268 CNS, 8.96 µM; in the assay with HT29 colon, more than 100 µM; with 786-0 renal it was more than 100 µM; with MDA-MB-435, more than 100 µM. The TGI in the assay on SK-MEL-2 melanoma, in the assay with SK-OV-3 ovarian, in the assay with A549 NSCLC, in the assay with OVCAR-3 ovarian, in the assay on T-47D breast and with SF-295 CNS was more than 100 µM throughout.

For the origin of these results see PubChem BioAssay (NCI).
